From patent US9011853B2, “B7-H4 fusion proteins and methods of use thereof” (Amplimmune, Inc., priority 2009, dated 2015)
Several values for one entry are separate records, joined by “and”; a condition that tells them apart may be missing. Equal entries are not always repeated.

Experiments:
MRL/lpr mice = assay: MRL/lpr lupus mouse model, anti-dsDNA autoantibody ELISA; type: in vivo; settings: individual MRL/lpr mouse, plasma diluted 1:2000
Procedure: MRL/lpr mice at 4 weeks of age were used in this experiment. Animals were tagged with metal tags on their right ears for identification. […] In the proof-of-concept study, combination treatments with recombinant murine B7-H4-Ig and CTX were tested. Mice received single or combination treatment of murine B7-H4-Ig (Lot#DEV-110-5-006) at 5 mg/kg with or without CTX at 50 mg/kg via IP injection, once every 2 weeks (FIG. 59). Murine B7-H4-Ig dosing regimen at 5 mg/kg (100 μg/mouse/injection), twice a week, was chosen based on in vivo studies of monoclonal antibody and fusion proteins. […] Blood samples ([…]) were taken from the submandibular vein (ARC SOP 8050.02.08) 3 days before the protein treatment and the every other week during and after treatments. Blood samples were collected in Microtainer® Blood Collection Tubes, and plasma was harvested from the supernatant of blood sample after centrifugation and stored at −80° C. freezer until use.
A positive anti-dsDNA autoantibody control was generated by pooling plasma from 5 aged MRL/lpr mice, approximately 8 months of age. The positive control plasma was aliquoted and stored at −80° C. freezer before use.
The dsDNA solution (10 mg/mL) was first generated by dissolving salmon testes DNA in PBS at 37° C. in a water bath followed by filtration through a 0.45 μm membrane filter. The dsDNA solution was aliquoted and stored at −80° C. before use.
On the day prior to the autoantibody ELISA, 100 μL of the dsDNA stock solution was first added to 10 mL of PBS resulting in a final concentration of 100 μg/ml. […] of the diluted dsDNA was then added to each well of Immulon 2HB 96-well flat bottom microtiter plates. Plates were placed in a humidified incubator at 37° C. without lids for overnight coating. Plates were washed 4 times with 300 μL of PBS/T [0.1% (v/v) Tween-20 (polysorbate 20) in PBS] using a microtiter plate washer (hydroFLEX, TECAN. Software: HydroControl) and then blocked with 200 μL of blocking buffer (10% fetal bovine serum in PBS) at room temperature for at least 1 h followed by 4 washes with 300 μL of PBS/T. The negative control (normal Balb/C mouse plasma, 1:2000 dilution), positive controls (1:5000, 1:10000, 1:20000 dilutions), and samples (1:2000 dilution) were diluted with blocking buffer. Next, 100 μL of each diluted control and sample was added to corresponding wells (duplicate wells) and incubated at room temperature for 2 h or at 4° C. overnight followed by 4 washes with 300 μL of PBS/T. For detection, 100 μL of anti-mouse IgG-HRP (Sigma, A9309, diluted to 1:10000 in blocking buffer) was added to each well and the plate was incubated at room temperature for 1 h followed by 4 washes with 400 μL of PBS/T.
Later, 100 μL of room temperature, pre-warmed TMB Substrate Reagent was added to each well. When the color developed optimally (about 10 min), 100 μL of stop solution (1% sulfuric acid) was added. The plate was then read for absorbance at 450 nm (OD450) using a microtiter plate reader (SPECTRAmax, Molecular Devices. Software: SoftMax Pro5.2).
All the blood samples were analyzed at the end of the study. The OD450 value of test samples was normalized relatively to the internal positive control at the 1:10000 dilution. The relative value rather than the absolute Ab concentration was used for comparison.
Female MRL/lpr mice at age of 4 weeks were divided into 4 groups (FIG. 59): vehicle, CTX alone, murine B7-H4-Ig alone and CTX plus murine B7-H4-Ig combination treatment (Combo). CTX was given IP, 50 mg/kg, once every 2 weeks. Murine B7-H4-Ig was administrated IP, 100 μg (5 mg/kg), and twice every week. The Combo group received CTX injection every 2 weeks and murine B7-H4-Ig 2 times every week at 5 mg/kg. Mice were treated for 7 weeks.
Plasma was collected from MRL/lpr mice pre-treatment (4 wk) and periodically up to 21 weeks of age.

[1] = test system: CD4^+CD62L^+ naïve T cells; assay: Mouse Th17 assay, IL-17A ELISA; type: cell-based
Procedure: CD4^+CD62L^+ naïve T cells were isolated from BALB/c mice as in the above examples, and activated by anti-CD3 and anti-CD28 bound beads in the presence of Th17 differntiation cocktail (TGF-β1 (10 ng/mL), IL-6 (50 ng/mL), IL-23 (4 ng/mL), anti-IL-4 (10 μg/mL), anti-IFN-γ (5 μg/mL) and anti-IL-2 (5 μg/mL)). Murine B7-H4-Ig (10 μg/mL) or retinoic acid (RA) (10 μM) was added to the cultures on day 0, day 1, or day 2 of the 4 day culture. IL-17A levels were measured by ELISA at the end of the 4 day culture.
The Th17 assay is 4 days in duration. In order to determine when B7-H4-Ig is acting, the Th17 assay was performed with the addition of 10 μg/mL of murine B7-H4-Ig, 10 μg/mL of mouse IgG control, or […] retinoic acid on Day 0, Day 1, or Day 2.
Peripheral T cells were obtained from spleens and inguinal lymph nodes of 6-9 week old BALB/c mice by mechanical disruption through a cell strainer followed by red blood cell (RBC) lysis.
Naïve helper T cells (CD4^+CD62L^+) were obtained using the Miltenyi Biotec microbead system. CD4^+ cells are enriched by negative selection, and followed by a positive selection of CD62L^+. In some experiments CD25+ cells were also depleted.
After selection, cells are activated in vitro with anti-CD3/CD28 beads at a 1:1 cell:bead ratio in the presence of the TH17 differentiation cocktail (TGF-β1 (10 ng/ml), IL-6 (50 ng/ml), IL-23 (4 ng/ml), anti-IL-2 (5 μg/ml), anti-IL-4 (10 μg/ml), and anti-IFN-γ (5 μg/ml)). Murine B7-H4-Ig is added at a final concentration of 1.25-20 μg/ml. Retinoic acid (RA) is used as positive control and mouse IgG is used as a negative control.
After 4 days of culture, cultures are spun down and supernatants are harvested and stored at <−65° C. until analyzed for IL-17A levels by ELISA.

DBA/1 mice [2] = assay: Therapeutic CIA study AA#80 (male mice), disease score; type: in vivo, mouse; settings: individual mice (Tag #)
Procedure: (§1) DBA/1 mice (10 per group) aged 7-9 weeks were used for the CIA model. Mice from several vendors (Jackson Laboratories, Harlan Laboratories, and Taconic Farms) were tested and it was determined that Taconic mice are most appropriate for the CIA studies. Taconic mice develop more consistent and severe disease symptoms and show continued disease progression, while mice from the other vendors often show stable, less severe disease, even in the absence of treatment. female (F) mice in AA#79 and male (M) mice in AA#80, were tested to determine which gender to use in future experiments.
(§2) On the day before the study is initiated, the hair on the right flank of each mouse was removed using an electric clipper. A metal identification tag was placed on the right ear of each mouse. On Day 0, mice were immunized with 100 μL of chicken collagen type II/Complete Freund's Adjuvant (CII/CFA) emulsion in the right flank. On Day 20, the hair on the left flank of each mouse was removed using an electric clipper, and on Day 21, mice were immunized with 100 μL of chicken collagen type II/Incomplete Freund's Adjuvant (CII/IFA) emulsion in the left flank. Pre-filled syringes of CII/CFA and CII/IFA emulsion purchased from Hooke Laboratories were used to ensure consistent dosing with and potency of the immunogen.
(§3) Early arthritis symptoms, such as erythema and mild swelling, usually appear on Day 21, and on Day 28, more severe symptoms such as swelling in many digits and inflammation extending to the tarsal joint are typically present. Each limb is evaluated for severity of arthritis symptoms three times a week using a widely accepted arthritis severity score system, shown in Table 2. The scores from each of the 4 limbs are summed to yield the disease score of each mouse. […]
(§4) Treatment was initiated when the average disease score for the study animals was greater than four. This corresponded to Day 29 in AA#79 and Day 24 in […]. By waiting until animals are symptomatic, it was ensured that the model is performed in a therapeutic rather than prophylactic mode.
(§5) B7-H4-Ig, RPA110010, and murine B7-H4-Ig proteins were administered by intraperitoneal (IP) injection 3 times a week for a total of 8 doses. RPA110010 is an extracellular domain variant of B7-H4-Ig, SEQ ID NO:126. Control murine and human IgG proteins were given once a week for a total of 3 doses. […] All proteins were diluted to the desired concentration (500 μg in 500 μL, or 1 mg/mL) with sterile PBS immediately before injection. Vehicle control mice receive Amplimmune formulation buffer diluted 1:10 in PBS, with an injection volume of 500 μL.

DBA/1 mice [3] = assay: Therapeutic CIA study AA#79 (female mice), disease score; type: in vivo, mouse
Procedure: as §1, §2, §3, §4, §5

O=P1(N(CCCl)CCCl)NCCCO1 (centres unmarked) [CTX, Cyclophosphamide]
dsDNA autoantibody (OD450 normalized against positive control diluted at 1:10000) (MRL/lpr mice; mouse age 4 weeks (pre-treatment)): 0.15 and 0.46 and 0.05 and 0.09 and 0.01 | dsDNA autoantibody (OD450 normalized against positive control diluted at 1:10000) (MRL/lpr mice; mouse age 7 weeks): 0.55 and 0.21 and 1.07 and 0.10 (2×) | dsDNA autoantibody (OD450 normalized against positive control diluted at 1:10000) (MRL/lpr mice; mouse age 8 weeks): 2.50 and 0.33 and 2.03 and 0.17 and 0.06 | dsDNA autoantibody (OD450 normalized against positive control diluted at 1:10000) (MRL/lpr mice; mouse age 9 weeks): 3.46 and 2.09 and 2.26 and 0.79 and 0.26 | dsDNA autoantibody (OD450 normalized against positive control diluted at 1:10000) (MRL/lpr mice; mouse age 10 weeks): 1.50 and 4.05 and 2.95 and 1.97 and 0.39 | dsDNA autoantibody (OD450 normalized against positive control diluted at 1:10000) (MRL/lpr mice; mouse age 11 weeks): 2.97 and 4.67 and 3.75 and 2.21 and 0.55 | dsDNA autoantibody (OD450 normalized against positive control diluted at 1:10000) (MRL/lpr mice; mouse age 15 weeks): 2.93 and 4.87 and 2.62 and 1.76 and 1.11 | dsDNA autoantibody (OD450 normalized against positive control diluted at 1:10000) (MRL/lpr mice; mouse age 19 weeks): 2.61 and 11.76 and 3.05 and 2.58 and 1.26

CC1=C(/C=C/C(C)=C/C=C/C(C)=C/C(=O)O)C(C)(C)CCC1 [RA, All trans-Retinoic Acid]
IL-17A expression (ELISA, day 4) ([1]; Th17 promoting conditions, relative to control mouse IgG (FIG. 56)): reduced IL-17A expression | IL-17A inhibition by time of addition ([1]; murine B7-H4-Ig 10 μg/mL or RA 10 μM (b737 prints 10 mM) added day 0, day 1 or day 2 of 4 day culture (FIG. 53)): inhibited IL-17A most potently when added at the beginning of the assay (day 0)

Syngis
AA#80 CIA disease scores (DBA/1 mice [2]; Study Day 20): 4 (3×) and 1 and 2 (2×) and 5 and 3 and 6 | AA#80 CIA disease scores (DBA/1 mice [2]; Study Day 22): 5 (4×) and 2 (2×) and 4 (2×) and 8 | AA#80 CIA disease scores (DBA/1 mice [2]; Study Day 24): 5 (4×) and 6 (3×) and 3 and 8 | AA#80 CIA disease scores (DBA/1 mice [2]; Study Day 27): 6 (4×) and 4 (2×) and 5 and 7 and 8 | AA#80 CIA disease scores (DBA/1 mice [2]; Study Day 29): 6 (2×) and 5 (4×) and 4 and 7 and 11 | AA#80 CIA disease scores (DBA/1 mice [2]; Study Day 31): 8 (3×) and 5 and 6 (3×) and 3 and 11 | AA#80 CIA disease scores (DBA/1 mice [2]; Study Day 34): 10 and 7 (2×) and 8 (4×) and 6 and 11 | AA#80 CIA disease scores (DBA/1 mice [2]; Study Day 36): 10 and 8 (5×) and 7 and 11 and 13 | AA#80 CIA disease scores (DBA/1 mice [2]; Study Day 38): 11 (2×) and 6 (2×) and 8 and 7 (2×) and 10 (2×) and 12 | AA#80 CIA disease scores (DBA/1 mice [2]; Study Day 41): 12 and 13 (2×) and 7 and 8 and 9 and 10 (2×) and 14 | AA#80 CIA disease scores (DBA/1 mice [2]; Study Day 44): 10 and 14 and 7 (3×) and 8 and 11 and 12 and 13 | CIA disease score (DBA/1 mice [3]; AA#79, Study Day 12, individual mouse (Tag#)): 0 (2×) and 1 (3×) and 2 | CIA disease score (DBA/1 mice [3]; AA#79, Study Day 18, individual mouse (Tag#)): 2 (4×) and 1 (2×) | CIA disease score (DBA/1 mice [3]; AA#79, Study Day 22, individual mouse (Tag#)): 4 and 2 (4×) and 3 | CIA disease score (DBA/1 mice [3]; AA#79, Study Day 25, individual mouse (Tag#)): 2 (4×) and 5 and 3 | CIA disease score (DBA/1 mice [3]; AA#79, Study Day 27, individual mouse (Tag#)): 5 (2×) and 7 and 4 (2×) and 6 | CIA disease score (DBA/1 mice [3]; AA#79, Study Day 29, individual mouse (Tag#)): 6 (3×) and 5 and 4 and 10 | CIA disease score (DBA/1 mice [3]; AA#79, Study Day 32, individual mouse (Tag#)): 10 and 9 (2×) and 7 and 8 | CIA disease score (DBA/1 mice [3]; AA#79, Study Day 34, individual mouse (Tag#)): 10 (2×) and 9 (2×) and 6 | CIA disease score (DBA/1 mice [3]; AA#79, Study Day 36, individual mouse (Tag#)): 11 (2×) and 9 (2×) and 10 and 8 | CIA disease score (DBA/1 mice [3]; AA#79, Study Day 39, individual mouse (Tag#)): 11 (2×) and 8 and 6 and 9 and 12 | CIA disease score (DBA/1 mice [3]; AA#79, Study Day 41, individual mouse (Tag#)): 12 and 10 (2×) and 13 and 6 and 11 | CIA disease score (DBA/1 mice [3]; AA#79, Study Day 43, individual mouse (Tag#)): 12 (2×) and 11 (2×) and 6 and 10 | CIA disease score (DBA/1 mice [3]; AA#79, Study Day 46, individual mouse (Tag#)): 14 (2×) and 11 and 12 and 6 and 10 | CIA disease score (DBA/1 mice [3]; AA#79, Study Day 48, individual mouse (Tag#)): 13 (3×) and 11 and 5 and 12 | CIA disease score (DBA/1 mice [3]; AA#79, Study Day 50, individual mouse (Tag#)): 11 (2×) and 12 (3×) and 9 | CIA disease score (DBA/1 mice [3]; AA#79, Study Day 54, individual mouse (Tag#)): 13 (2×) and 12 (3×) and 8 | CIA disease score (DBA/1 mice [3]; AA#79, Study Day 57, individual mouse (Tag#)): 13 (2×) and 14 and 7 and 12 and 15
